According to PubChem BioAssay AID1996:
Values after ≈ are worked out from the molar mass of the structure shown.

Conditions: buffer; pH 7.4; 200.0 µM
With CN(C)c1ncc([N+](=O)[O-])cc1C(F)(F)F the solubility kinetic was 5.2 µg/mL (≈ 22.1 µM).
For CCOC(=O)c1ccc(NC(=S)NCCCn2ccnc2)cc1, the solubility kinetic was > 49.9 µg/mL.
For Fc1ccc(SCCc2cccc[nH+]2)cc1.O=P([O-])(O)O, the solubility kinetic was 9.7 µg/mL.
Compound COc1cccc(C(=O)CC(C#N)c2ccc(F)cc2)c1 (configuration not stated) has a solubility kinetic of 16 µg/mL (≈ 56.5 µM).
In the case of Cc1ccc(N(CC(=O)Nc2cc(C)ccc2C)S(C)(=O)=O)cc1, the solubility kinetic is reported as 33.7 µg/mL (≈ 97.3 µM).
CN(CC(=O)NC(=O)Nc1ccccc1F)Cc1ccccc1 showed a solubility kinetic of 4.7 µg/mL (≈ 14.9 µM).
With CC1(C)CN2C(=O)c3ccccc3C2(C)S1 (configuration not stated) the solubility kinetic was > 35 µg/mL.
With CC12CC3CC(C)(C1)CC(C(=O)NCc1ccncc1)(C3)C2 the solubility kinetic was > 44.8 µg/mL.
In the case of CC1(C)Cc2nc(NC3CCCCC3)c(C#N)cc2CO1, the solubility kinetic is reported as 1.7 µg/mL (≈ 5.96 µM).
O=c1c2cc(NC(=S)NC3CC3)ccc2nc2n1CCCCC2 showed a solubility kinetic of 34.7 µg/mL (≈ 106 µM).
For CC1Cc2ccccc2N1CC(=O)NC(=O)NC1CCCC1 (configuration not stated), the solubility kinetic was 6.9 µg/mL (≈ 22.9 µM).
For O=C(NOCc1ccccc1)c1ccc([N+](=O)[O-])cc1, the solubility kinetic was > 40.8 µg/mL.
Work on O=[N+]([O-])c1ccccc1CSc1ccccn1 yielded a solubility kinetic of 13.7 µg/mL (≈ 55.6 µM).
Compound CC1CCc2cc(F)ccc2N1C(=O)c1cccs1 (configuration not stated) has a solubility kinetic of 30.8 µg/mL (≈ 112 µM).
In the case of CC(=O)Nc1nc(-c2ccc3ccccc3c2)cs1, the solubility kinetic is reported as < 0.3 µg/mL.
Work on O=C(COC(=O)c1ccc2c(c1)OCCO2)NCCc1ccc(F)cc1 yielded a solubility kinetic of 5.3 µg/mL (≈ 14.7 µM).
In the case of CC(=O)Nc1cccc(C(=O)NCCc2ccco2)c1, the solubility kinetic is reported as > 40.8 µg/mL.
With COC(=O)c1ccccc1NC(=O)c1cc[n+](C)cc1 the solubility kinetic was 26.8 µg/mL.
With COC(=O)c1onc(-c2c(Cl)cccc2Cl)c1C(=O)OC the solubility kinetic was 41.2 µg/mL (≈ 125 µM).
In the case of Brc1cccc(CNCC2CCCO2)c1 (configuration not stated), the solubility kinetic is reported as > 40.5 µg/mL.
COc1ccc(-n2c(C)nc3sc4c(c3c2=O)CCCC4)cc1 gave a solubility kinetic of 6.4 µg/mL (≈ 19.6 µM).
In the case of Cc1cc(=O)[nH]c2c(C)cc(S(=O)(=O)N3CCOCC3)cc12, the solubility kinetic is reported as 17.3 µg/mL (≈ 53.7 µM).
In the case of NC(=O)C1CCN(CC(=O)NC(=O)NC2CCCC2)CC1, the solubility kinetic is reported as > 44.5 µg/mL.
In the case of O=C(NNC(=O)c1cccnc1Cl)c1ccc(F)cc1, the solubility kinetic is reported as > 44.1 µg/mL.
Compound O=C(COC(=O)C1(c2cccc(F)c2)CCCC1)NCc1cccs1 has a solubility kinetic of 16.2 µg/mL (≈ 44.8 µM).
With CC(C)C(=O)NC(=O)COC(=O)/C=C/c1cccs1 the solubility kinetic was 21.6 µg/mL (≈ 76.8 µM).
For O=C(/C=C/c1ccc(F)cc1)N1CC[C@@]2(O)CCCC[C@H]2C1, the solubility kinetic was > 45.5 µg/mL.
With Cc1ccsc1C(=O)OCC(=O)N(C)C1CCCCC1 the solubility kinetic was > 44.3 µg/mL.
Work on CS(=O)(=O)Oc1ccc2c(c1)O/C(=C\c1cccnc1)C2=O yielded a solubility kinetic of 5 µg/mL (≈ 15.8 µM).
In the case of Cc1cc(-c2ccccc2)nc(SC(C(=O)O)c2ccccc2)n1 (configuration not stated), the solubility kinetic is reported as 48.1 µg/mL (≈ 143 µM).
With CC(=O)c1ccc(NC(=S)NCCCn2ccnc2)cc1 the solubility kinetic was > 45.4 µg/mL.
For O=C(O)c1cccc([N+](=O)[O-])c1C(=O)Nc1ccc2ccccc2c1, the solubility kinetic was 35.4 µg/mL (≈ 105 µM).
Compound CCN(CC)S(=O)(=O)c1ccc(NCCc2ccccn2)nc1 has a solubility kinetic of 49.2 µg/mL (≈ 147 µM).
For CC1Cc2ccccc2N1Cc1ccc([N+](=O)[O-])cc1 (configuration not stated), the solubility kinetic was < 0.3 µg/mL.
With O=C(COc1ncnc2ccccc12)NC1CCCCC1 the solubility kinetic was > 42.8 µg/mL.
For COc1ccccc1CCNC(=O)c1c(C)nn(CC(C)C)c1Cl, the solubility kinetic was > 52.5 µg/mL.
Work on CNC(=S)/N=C(\Nc1ccc(C)cc1)c1ccccc1 yielded a solubility kinetic of 1.3 µg/mL (≈ 4.59 µM).
Work on O=C(COC(=O)c1ccc(O)cc1)Nc1ccccc1[N+](=O)[O-] yielded a solubility kinetic of 4.3 µg/mL (≈ 13.6 µM).
With O=C(COC(=O)Cc1ccc(Cl)cc1)NCc1ccco1 the solubility kinetic was > 46.2 µg/mL.
Compound S=C(Nc1ccccc1Cl)N1CCC(c2ccccc2)C1 (configuration not stated) has a solubility kinetic of 17.9 µg/mL (≈ 56.5 µM).
In the case of O=C(NCc1cccs1)c1cnc(Cl)c(Cl)c1, the solubility kinetic is reported as > 43.1 µg/mL.
Cc1cccc(C)c1NC(=S)NC(=O)c1ccc(Br)o1 gave a solubility kinetic of 4.1 µg/mL (≈ 11.6 µM).
With CC(=O)c1cccc(NC(=S)Nc2ccc(F)cc2)c1 the solubility kinetic was 30.3 µg/mL (≈ 105 µM).
With CS(=O)(=O)N1CCC(C(=O)NCc2ccc3c(c2)OCO3)CC1 the solubility kinetic was > 51.1 µg/mL.
With COc1ccc(N2CCN(C(=O)Cc3ccc(C)cc3)CC2)cc1 the solubility kinetic was 43.9 µg/mL (≈ 135 µM).
In the case of Cc1ccc(O)c(CNc2nc3ccccc3[nH]2)c1, the solubility kinetic is reported as > 38 µg/mL.
Compound Cc1cc(C=C2C(=O)NC(=O)NC2=O)c(C)n1-c1cccnc1 has a solubility kinetic of 10.6 µg/mL (≈ 34.2 µM).
COc1ccc(OCC(=O)O/N=C(\N)c2ccc(OC)cc2)cc1 showed a solubility kinetic of 1.2 µg/mL (≈ 3.63 µM).
CCCOc1ccc(C(=O)Nc2ccc3c(c2)OCCO3)cc1 showed a solubility kinetic of 1 µg/mL (≈ 3.19 µM).
In the case of N#Cc1ccccc1OCC(=O)OCC(=O)c1ccc[nH]1, the solubility kinetic is reported as 24.9 µg/mL (≈ 87.6 µM).
For Cc1ccc(S(=O)(=O)NC(=O)C2CCCCC2)cc1, the solubility kinetic was > 42.2 µg/mL.
With c1coc(-c2ccnc(-n3cccc3)n2)c1 the solubility kinetic was 1.6 µg/mL (≈ 7.57 µM).
For CN1CCCN(C(=O)COc2ccccc2)CC1, the solubility kinetic was > 37.2 µg/mL.
Compound C=CCNc1nc(C(=O)OC(C)C(=O)c2ccc(C)cc2)cs1 (configuration not stated) has a solubility kinetic of 8.8 µg/mL (≈ 26.6 µM).
Work on O=C(COC(=O)c1cnccn1)c1ccc(Cl)cc1 yielded a solubility kinetic of 38.4 µg/mL (≈ 139 µM).
Work on Clc1cccc(Cl)c1-c1noc(-c2ccno2)n1 yielded a solubility kinetic of 28.6 µg/mL (≈ 101 µM).
For Cc1csc(Nc2nc(N)c(C(=O)Nc3cc(Cl)ccc3F)o2)n1, the solubility kinetic was 3.1 µg/mL (≈ 8.43 µM).
In the case of Cc1ccnc(NC(=O)CNC(=O)c2ccc3c(c2)OCO3)c1, the solubility kinetic is reported as 22.3 µg/mL (≈ 71.2 µM).
Compound C[N+]12CCCCC1[C@@H](CO)CCC2.[Br-] (some centres not stated) has a solubility kinetic of 39.1 µg/mL.
In the case of O=C(Nc1nc2ccccc2s1)c1c(F)cccc1Cl, the solubility kinetic is reported as 0.6 µg/mL (≈ 1.96 µM).
For COC(=O)c1ccc(C(=O)OC)c(NC(=O)CSCC(=O)O)c1, the solubility kinetic was > 51.2 µg/mL.
With CCN(CC)CCNC(=O)c1ccc(N)cc1.Cl the solubility kinetic was > 40.8 µg/mL.
